In patent EP4745137A1 (Gluetacs Therapeutics (Shanghai) Co., Ltd., priority 2023, dated 2025):

Experiments:
IKZF3 = target: T1, IKZF3 (Homo sapiens, UniProt Q96SW2+Q9UKT9); assay: Western-blot assay of substrate protein degradation in hPBMCs, IKZF3; type: cell-based; conditions: 24 hours of compound treatment, compounds tested at 50 nM and 500 nM (concentration of the table not stated)
T1 construct: endogenous in cells; host or cells: hPBMCs (Milecell Biotechnologies)

[1] = system: Human breast cancer cells (MDA-MB-231); assay: Tumor cell proliferation inhibition (CellTiter-Meiluncell Luminescent Cell Viability Assay), MDA-MB-231; conditions: MDA-MB-231, 96 h, read-out: inhibitory activity (IC50, nM) against tumor cells proliferation, MDA-MB-231
GSPT1 = target: T2, GSPT1 (Homo sapiens, UniProt P15170+Q96SW2); assay: Western-blot assay of substrate protein degradation in hPBMCs, GSPT1; type: cell-based; conditions: 24 hours of compound treatment, compounds tested at 50 nM and 500 nM (concentration of the table not stated)
T2 construct: endogenous in cells; host or cells: hPBMCs (Milecell Biotechnologies)
T2 sequence (P15170 whole entry): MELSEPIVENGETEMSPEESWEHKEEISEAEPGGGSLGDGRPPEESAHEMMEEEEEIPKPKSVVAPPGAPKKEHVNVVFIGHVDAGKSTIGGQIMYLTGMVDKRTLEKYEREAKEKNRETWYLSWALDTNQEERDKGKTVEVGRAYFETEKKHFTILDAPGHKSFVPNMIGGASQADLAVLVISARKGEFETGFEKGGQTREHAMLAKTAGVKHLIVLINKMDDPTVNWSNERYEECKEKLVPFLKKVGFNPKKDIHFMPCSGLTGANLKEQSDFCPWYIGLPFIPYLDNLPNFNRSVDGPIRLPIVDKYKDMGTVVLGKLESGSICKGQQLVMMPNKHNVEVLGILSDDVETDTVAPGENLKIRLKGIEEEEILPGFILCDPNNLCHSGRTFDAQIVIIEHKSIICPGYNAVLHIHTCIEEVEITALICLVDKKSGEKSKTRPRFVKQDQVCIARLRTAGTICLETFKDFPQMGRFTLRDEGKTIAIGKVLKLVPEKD
T2 sequence (Q96SW2 whole entry): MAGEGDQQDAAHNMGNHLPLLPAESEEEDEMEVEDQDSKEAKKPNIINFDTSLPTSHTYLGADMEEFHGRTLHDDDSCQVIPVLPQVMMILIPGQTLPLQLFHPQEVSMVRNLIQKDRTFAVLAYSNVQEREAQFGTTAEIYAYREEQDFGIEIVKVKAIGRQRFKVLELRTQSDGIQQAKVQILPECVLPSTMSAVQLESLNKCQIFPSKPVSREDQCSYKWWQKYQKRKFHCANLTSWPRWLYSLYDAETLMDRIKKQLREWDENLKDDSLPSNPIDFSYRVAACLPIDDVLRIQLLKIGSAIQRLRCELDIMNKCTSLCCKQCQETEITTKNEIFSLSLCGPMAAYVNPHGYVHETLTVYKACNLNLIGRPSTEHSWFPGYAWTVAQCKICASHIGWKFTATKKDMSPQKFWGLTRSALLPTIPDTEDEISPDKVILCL
T2 sequence (Q16531 whole entry partner): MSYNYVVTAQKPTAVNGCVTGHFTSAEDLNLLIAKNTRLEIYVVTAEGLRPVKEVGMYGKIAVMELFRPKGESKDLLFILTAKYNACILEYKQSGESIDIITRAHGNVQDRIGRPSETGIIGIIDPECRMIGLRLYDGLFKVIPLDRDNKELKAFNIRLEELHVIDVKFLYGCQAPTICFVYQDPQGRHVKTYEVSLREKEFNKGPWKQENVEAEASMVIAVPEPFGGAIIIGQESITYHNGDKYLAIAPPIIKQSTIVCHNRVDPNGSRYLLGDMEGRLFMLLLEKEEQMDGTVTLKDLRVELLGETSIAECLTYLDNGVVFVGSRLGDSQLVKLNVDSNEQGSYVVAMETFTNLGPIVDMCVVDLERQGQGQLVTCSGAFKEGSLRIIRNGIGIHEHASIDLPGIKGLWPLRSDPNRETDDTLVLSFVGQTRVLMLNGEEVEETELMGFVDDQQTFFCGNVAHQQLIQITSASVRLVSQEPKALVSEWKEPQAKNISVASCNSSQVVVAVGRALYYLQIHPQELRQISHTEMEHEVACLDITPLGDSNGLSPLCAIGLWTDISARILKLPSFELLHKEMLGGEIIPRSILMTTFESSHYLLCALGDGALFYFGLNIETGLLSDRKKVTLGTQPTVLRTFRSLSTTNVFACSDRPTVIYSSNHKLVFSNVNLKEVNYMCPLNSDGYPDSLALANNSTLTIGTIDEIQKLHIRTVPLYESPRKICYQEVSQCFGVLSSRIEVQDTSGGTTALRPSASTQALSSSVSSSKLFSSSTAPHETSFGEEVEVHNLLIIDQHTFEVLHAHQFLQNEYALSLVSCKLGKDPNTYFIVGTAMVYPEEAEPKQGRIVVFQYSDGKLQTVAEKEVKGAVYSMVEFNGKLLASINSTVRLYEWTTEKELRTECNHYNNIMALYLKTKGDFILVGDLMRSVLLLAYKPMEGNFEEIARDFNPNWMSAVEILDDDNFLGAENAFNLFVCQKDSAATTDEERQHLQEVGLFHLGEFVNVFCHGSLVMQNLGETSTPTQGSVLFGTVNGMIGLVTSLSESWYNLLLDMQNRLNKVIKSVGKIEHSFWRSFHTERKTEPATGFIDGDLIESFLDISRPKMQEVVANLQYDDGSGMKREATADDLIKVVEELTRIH

MM.1R = assay: Tumor cell proliferation inhibition (CellTiter-Meiluncell Luminescent Cell Viability Assay), MM.1R; conditions: Homo sapiens, 96 h, read-out: inhibitory activity (IC50, nM) against tumor cells proliferation, MM.1R
IKZF2 = target: T3, IKZF2 (Homo sapiens, UniProt Q96SW2+Q9UKS7); assay: Western-blot assay of substrate protein degradation in hPBMCs, IKZF2; type: cell-based; conditions: 24 hours of compound treatment, compounds tested at 50 nM and 500 nM (concentration of the table not stated)
T3 construct: endogenous in cells; host or cells: hPBMCs (Milecell Biotechnologies)
T3 sequence (Q9UKS7 whole entry): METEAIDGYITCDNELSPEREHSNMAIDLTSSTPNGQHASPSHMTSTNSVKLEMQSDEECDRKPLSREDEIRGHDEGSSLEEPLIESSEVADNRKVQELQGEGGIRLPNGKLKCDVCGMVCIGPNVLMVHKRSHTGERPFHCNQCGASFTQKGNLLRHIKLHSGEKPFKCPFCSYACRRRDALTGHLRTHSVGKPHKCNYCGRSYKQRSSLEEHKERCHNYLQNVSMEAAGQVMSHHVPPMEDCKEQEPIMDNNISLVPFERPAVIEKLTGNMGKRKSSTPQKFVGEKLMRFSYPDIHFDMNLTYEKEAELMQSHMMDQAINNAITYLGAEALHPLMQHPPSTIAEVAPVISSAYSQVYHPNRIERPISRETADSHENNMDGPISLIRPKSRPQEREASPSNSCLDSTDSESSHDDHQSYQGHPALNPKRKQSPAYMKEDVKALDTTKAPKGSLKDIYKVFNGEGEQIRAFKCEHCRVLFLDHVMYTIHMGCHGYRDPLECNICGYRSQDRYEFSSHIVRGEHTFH
T3 sequence (Q96SW2 whole entry): as the sequence (Q96SW2 whole entry) above
T3 sequence (Q16531 whole entry partner): as the sequence (Q16531 whole entry partner) above

IKZF1 = target: T4, IKZF1 (Homo sapiens, UniProt Q13422+Q96SW2); assay: Western-blot assay of substrate protein degradation in hPBMCs, IKZF1; type: cell-based; conditions: 24 hours of compound treatment, compounds tested at 50 nM and 500 nM (concentration of the table not stated)
T4 construct: endogenous in cells; host or cells: hPBMCs (Milecell Biotechnologies)
T4 sequence (Q13422 whole entry): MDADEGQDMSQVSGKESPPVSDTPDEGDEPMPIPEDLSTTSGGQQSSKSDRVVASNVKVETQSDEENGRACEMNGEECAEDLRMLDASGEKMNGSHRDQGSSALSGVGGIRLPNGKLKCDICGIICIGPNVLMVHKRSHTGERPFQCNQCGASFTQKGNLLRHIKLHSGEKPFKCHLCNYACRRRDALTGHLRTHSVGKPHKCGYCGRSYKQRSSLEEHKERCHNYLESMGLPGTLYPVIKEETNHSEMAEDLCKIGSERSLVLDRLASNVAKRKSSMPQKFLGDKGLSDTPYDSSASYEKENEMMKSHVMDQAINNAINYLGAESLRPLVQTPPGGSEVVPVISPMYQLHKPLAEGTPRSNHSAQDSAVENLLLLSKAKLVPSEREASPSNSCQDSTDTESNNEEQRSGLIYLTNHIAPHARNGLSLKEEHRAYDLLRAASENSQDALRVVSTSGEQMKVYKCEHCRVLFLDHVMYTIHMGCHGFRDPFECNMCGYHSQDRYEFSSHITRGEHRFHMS
T4 sequence (Q96SW2 whole entry): as the sequence (Q96SW2 whole entry) above
T4 sequence (Q16531 whole entry partner): as the sequence (Q16531 whole entry partner) above

CAL-62 = assay: Tumor cell proliferation inhibition (CellTiter-Meiluncell Luminescent Cell Viability Assay), CAL-62; conditions: Homo sapiens, CAL-62, 96 h, read-out: inhibitory activity (IC50, nM) against tumor cells proliferation, CAL-62
Procedure: The tumor cells used herein were cultured in a cell culture medium listed in table 2 at 37°C in an incubator with 5% CO2. Prior to experimentation, all cell lines used were correctly identified by STR profiling, and tested negative for mycoplasma contamination using a mycoplasma detection kit through routine screenings.
On the following day, the test compounds of the present disclosure were subjected to serial dilution. […] Subsequently, 0.5 µL of the test compound dilution was transferred into the 96-well plate containing the cells, with each well containing 100 µL of cell culture medium. […] Into the 96-well plate, the diluted test compounds and corresponding detection reagents were added, resulting in final test compound concentrations of 500 nM and 10 nM, respectively. The experimental procedure is described below using the diluted 2 µM test compound as an example.
After the cells were treated with the compounds of the present disclosure for a specified period (the treatment durations were shown in Table 3), the cell viability assay reagent was added to the culture medium according to the kit's instructions to determine cell viability. […] All controls were treated using the same procedure as the compounds of the present disclosure. The growth inhibition curves for the compounds of the present disclosure were plotted using Prism GraphPad software, and the IC50 values were calculated therefrom.

WEE1 = target: T5, WEE1 (Homo sapiens, UniProt P30291+Q96SW2); assay: Western-blot assay of substrate protein degradation in hPBMCs, WEE1; type: cell-based; conditions: 24 hours of compound treatment, compounds tested at 50 nM and 500 nM (concentration of the table not stated)
T5 construct: endogenous in cells; host or cells: hPBMCs (Milecell Biotechnologies)
T5 sequence (P30291 whole entry): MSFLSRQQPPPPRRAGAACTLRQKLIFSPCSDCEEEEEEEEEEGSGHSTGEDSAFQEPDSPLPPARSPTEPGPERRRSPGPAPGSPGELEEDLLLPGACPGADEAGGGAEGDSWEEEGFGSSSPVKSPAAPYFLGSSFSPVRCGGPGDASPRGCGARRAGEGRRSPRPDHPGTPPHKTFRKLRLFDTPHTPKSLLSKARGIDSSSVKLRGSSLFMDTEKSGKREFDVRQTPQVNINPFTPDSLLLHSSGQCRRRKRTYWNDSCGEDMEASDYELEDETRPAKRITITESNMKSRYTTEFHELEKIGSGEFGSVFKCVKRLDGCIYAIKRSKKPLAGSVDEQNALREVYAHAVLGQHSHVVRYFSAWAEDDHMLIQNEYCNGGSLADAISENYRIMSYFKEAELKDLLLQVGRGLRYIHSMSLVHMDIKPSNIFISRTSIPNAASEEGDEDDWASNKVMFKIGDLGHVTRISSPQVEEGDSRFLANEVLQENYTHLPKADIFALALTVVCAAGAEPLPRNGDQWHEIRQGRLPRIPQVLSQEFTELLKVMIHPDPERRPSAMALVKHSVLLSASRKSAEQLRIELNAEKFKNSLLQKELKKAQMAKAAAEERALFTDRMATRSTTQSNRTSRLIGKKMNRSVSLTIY
T5 sequence (Q96SW2 whole entry): as the sequence (Q96SW2 whole entry) above
T5 sequence (Q16531 whole entry partner): as the sequence (Q16531 whole entry partner) above

[2] = target: T6, human Cereblon WT GST-tagged protein (Homo sapiens, UniProt Q96SW2); assay: CRBN-binding affinity by HTRF (CEREBLON BINDING kit); conditions: HTRF inhibitory activity, CEREBLON BINDING kit; read-out: HTRF IC50
T6 construct: purchased CISBIO 64BDCRBNPEH
T6 sequence (Q96SW2 whole entry): as the sequence (Q96SW2 whole entry) above

[3] = system: Human acute T lymphocytic leukemia cells (Molt-4); assay: Tumor cell proliferation inhibition (CellTiter-Meiluncell Luminescent Cell Viability Assay), Molt-4; conditions: MOLT-4, 96 h, read-out: inhibitory activity (IC50, nM) against tumor cells proliferation, Molt 4
NCI-H1975 = assay: Tumor cell proliferation inhibition (CellTiter-Meiluncell Luminescent Cell Viability Assay), NCI-H1975; conditions: Homo sapiens, NCI-H1975, 96 h, read-out: inhibitory activity (IC50, nM) against tumor cells proliferation, H1975
CK1α = target: T7, CK1α (Homo sapiens, UniProt P48729+Q96SW2); assay: Western-blot assay of substrate protein degradation in hPBMCs, CK1α; type: cell-based; conditions: 24 hours of compound treatment, compounds tested at 50 nM and 500 nM (concentration of the table not stated)
T7 construct: endogenous in cells; host or cells: hPBMCs (Milecell Biotechnologies)
T7 sequence (P48729 whole entry): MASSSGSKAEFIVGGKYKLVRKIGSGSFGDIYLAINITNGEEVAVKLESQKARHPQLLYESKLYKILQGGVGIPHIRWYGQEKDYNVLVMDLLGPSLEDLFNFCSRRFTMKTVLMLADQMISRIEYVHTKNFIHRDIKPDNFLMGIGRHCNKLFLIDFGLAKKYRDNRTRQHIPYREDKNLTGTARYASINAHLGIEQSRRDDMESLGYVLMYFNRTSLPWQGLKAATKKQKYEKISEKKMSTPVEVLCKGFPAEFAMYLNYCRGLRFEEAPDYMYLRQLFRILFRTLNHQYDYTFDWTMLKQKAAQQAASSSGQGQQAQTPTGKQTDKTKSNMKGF
T7 sequence (Q96SW2 whole entry): as the sequence (Q96SW2 whole entry) above
T7 sequence (Q16531 whole entry partner): as the sequence (Q16531 whole entry partner) above

Jurkat = assay: Tumor cell proliferation inhibition (CellTiter-Meiluncell Luminescent Cell Viability Assay), Jurkat; conditions: Homo sapiens, 96 h, read-out: inhibitory activity (IC50, nM) against tumor cells proliferation, Jurkat

Structure (SMILES) | IKZF3 substrate protein remaining % (IKZF3) | IC50 [1] | GSPT1 substrate protein remaining % (GSPT1) | IC50 (MM.1R) | IKZF2 substrate protein remaining % (IKZF2) | IKZF 1 substrate protein remaining % (IKZF1) | IC50 (CAL-62) | Weel substrate protein remaining % (WEE1) | IC50 [2] | IC50 [3] | IC50 (NCI-H1975) | CK1a substrate protein remaining % (CK1α) | IC50 (Jurkat)
O=C1CCC(N2Cc3c(ccc(CN4CCN(c5cccc(Cl)c5Cl)CC4)c3F)C2=O)C(=O)N1 (centres unmarked) [GT-04526, 3-(5-((4-(2,3-dichlorophenyl)piperazin-1-yl)methyl)-4-fluoro-1-oxoisoindolin-2-yl)piperidine-2,6-dione] | A (0% ≤ substrate protein remaining % ≤ 80%) | 10 to 50 nM | A (0% ≤ substrate protein remaining % ≤ 80%) | 1 to 5 nM | A (0% ≤ substrate protein remaining % ≤ 80%) | A (0% ≤ substrate protein remaining % ≤ 80%) | 5 to 10 nM | A (0% ≤ substrate protein remaining % ≤ 80%) | 0.5 to 1 µM | 1 to 5 nM | 10 to 50 nM | A (0% ≤ substrate protein remaining % ≤ 80%) | 
O=C1CCC(N2Cc3cc(CN4CCN(c5ccc(F)c(F)c5)CC4)ccc3C2=O)C(=O)N1 (centres unmarked) [GT-04529, 3-(5-((4-(3,4-difluorophenyl)piperazin-1-yl)methyl)-1-oxoisoindolin-2-yl)piperidine-2,6-dione] | A (0% ≤ substrate protein remaining % ≤ 80%) |  | A (0% ≤ substrate protein remaining % ≤ 80%) | 50 to 100 nM | A (0% ≤ substrate protein remaining % ≤ 80%) | A (0% ≤ substrate protein remaining % ≤ 80%) | 100 to 500 nM | A (0% ≤ substrate protein remaining % ≤ 80%) | 1.5 to 1.9 µM | 10 to 50 nM |  | A (0% ≤ substrate protein remaining % ≤ 80%) | 10 to 50 nM
O=C1CCC(N2Cc3cc(CN4CCN(c5nccc(Cl)c5Cl)CC4)ccc3C2=O)C(=O)N1 (centres unmarked) [GT-04532, 3-(5-((4-(3,4-dichloropyridin-2-yl)piperazin-1-yl)methyl)-1-oxoisoindolin-2-yl)piperidine-2,6-dione] | A (0% ≤ substrate protein remaining % ≤ 80%) |  | A (0% ≤ substrate protein remaining % ≤ 80%) | 10 to 50 nM | A (0% ≤ substrate protein remaining % ≤ 80%) | A (0% ≤ substrate protein remaining % ≤ 80%) | 10 to 50 nM | A (0% ≤ substrate protein remaining % ≤ 80%) | 0.5 to 1 µM | 10 to 50 nM |  | A (0% ≤ substrate protein remaining % ≤ 80%) | 10 to 50 nM
O=C1CCC(N2Cc3cc(CN4CCN(c5cncc(Cl)c5Cl)CC4)ccc3C2=O)C(=O)N1 (centres unmarked) [GT-04538, 3-(5-((4-(4,5-dichloropyridin-3-yl)piperazin-1-yl)methyl)-1-oxoisoindolin-2-yl)piperidine-2,6-dione] | A (0% ≤ substrate protein remaining % ≤ 80%) |  | A (0% ≤ substrate protein remaining % ≤ 80%) | 100 to 500 nM | A (0% ≤ substrate protein remaining % ≤ 80%) | A (0% ≤ substrate protein remaining % ≤ 80%) | 100 to 500 nM | A (0% ≤ substrate protein remaining % ≤ 80%) | < 0.5 µM | 50 to 100 nM |  | A (0% ≤ substrate protein remaining % ≤ 80%) | 50 to 100 nM
O=C1CCC(N2Cc3cc(CN4CCN(c5cc(F)ccc5F)CC4)ccc3C2=O)C(=O)N1 (centres unmarked) [GT-04539, 3-(5-((4-(2,5-difluorophenyl)piperazin-1-yl)methyl)-1-oxoisoindolin-2-yl)piperidine-2,6-dione] | A (0% ≤ substrate protein remaining % ≤ 80%) |  | A (0% ≤ substrate protein remaining % ≤ 80%) | 10 to 50 nM | A (0% ≤ substrate protein remaining % ≤ 80%) | A (0% ≤ substrate protein remaining % ≤ 80%) | 50 to 100 nM | A (0% ≤ substrate protein remaining % ≤ 80%) | 0.5 to 1 µM | 10 to 50 nM |  | A (0% ≤ substrate protein remaining % ≤ 80%) | 10 to 50 nM
O=C1CCC(N2Cc3cc(CN4CCN(c5c(F)cccc5F)CC4)ccc3C2=O)C(=O)N1 (centres unmarked) [GT-04540, 3-(5-((4-(2,6-difluorophenyl)piperazin-1-yl)methyl)-1-oxoisoindolin-2-yl)piperidine-2,6-dione] | A (0% ≤ substrate protein remaining % ≤ 80%) |  | A (0% ≤ substrate protein remaining % ≤ 80%) | 100 to 500 nM | A (0% ≤ substrate protein remaining % ≤ 80%) | A (0% ≤ substrate protein remaining % ≤ 80%) | 100 to 500 nM | A (0% ≤ substrate protein remaining % ≤ 80%) | 0.5 to 1 µM | 50 to 100 nM |  | B (80%< substrate protein remaining %≤ 100%) | 50 to 100 nM
Cc1ccc(N2CCN(Cc3ccc4c(c3)CN(C3CCC(=O)NC3=O)C4=O)CC2)s1 (centres unmarked) [GT-04546, 3-(5-((4-(5-methylthiophen-2-yl)piperazin-1-yl)methyl)-1-oxoisoindolin-2-yl)piperidine-2,6-dione] | A (0% ≤ substrate protein remaining % ≤ 80%) |  | A (0% ≤ substrate protein remaining % ≤ 80%) | 100 to 500 nM | A (0% ≤ substrate protein remaining % ≤ 80%) | A (0% ≤ substrate protein remaining % ≤ 80%) | 10 to 50 nM | A (0% ≤ substrate protein remaining % ≤ 80%) | 0.5 to 1 µM | 100 to 500 nM |  | A (0% ≤ substrate protein remaining % ≤ 80%) | 50 to 100 nM
O=C1CCC(N2Cc3cc(CN4CCC(c5ccnc(Cl)c5Cl)CC4)ccc3C2=O)C(=O)N1 (centres unmarked) [GT-04560, 3-(5-((4-(2,3-dichloropyridin-4-yl)piperidin-1-yl)methyl)-1-oxoisoindolin-2-yl)piperidine-2,6-dione] | A (0% ≤ substrate protein remaining % ≤ 80%) |  | A (0% ≤ substrate protein remaining % ≤ 80%) | 10 to 50 nM | A (0% ≤ substrate protein remaining % ≤ 80%) | A (0% ≤ substrate protein remaining % ≤ 80%) | 10 to 50 nM | A (0% ≤ substrate protein remaining % ≤ 80%) | 0.5 to 1 µM | 10 to 50 nM |  | A (0% ≤ substrate protein remaining % ≤ 80%) | 10 to 50 nM
